21 molecules from ChEMBL document CHEMBL1153442, “Synthesis and in vitro evaluation of sulfonamide isatin Michael acceptors as small molecule inhibitors of caspase-6” (J Med Chem, 2009) can be followed below.

The target in one experiment is T1, Caspase-3 (Homo sapiens, UniProt P42574).
T1 sequence (P42574 whole entry): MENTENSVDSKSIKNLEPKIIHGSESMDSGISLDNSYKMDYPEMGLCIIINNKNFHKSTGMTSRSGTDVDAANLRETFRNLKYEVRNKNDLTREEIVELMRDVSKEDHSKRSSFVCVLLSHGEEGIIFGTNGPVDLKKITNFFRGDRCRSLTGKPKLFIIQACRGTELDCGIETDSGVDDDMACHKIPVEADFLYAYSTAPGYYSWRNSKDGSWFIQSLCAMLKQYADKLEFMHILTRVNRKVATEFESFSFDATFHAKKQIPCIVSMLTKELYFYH
Nature of the experiment: Inhibition of human recombinant caspase 3 assessed as accumulation of fluorogenic product by fluorometric assay.

A further experiment addresses Caspase-8 (Homo sapiens, UniProt Q14790). Nature of the experiment: Inhibition of human recombinant caspase 8 assessed as accumulation of fluorogenic product by fluorometric assay.
For the next experiment, the target named is T2, Caspase-7 (Homo sapiens, UniProt P55210).
T2 sequence (P55210 whole entry): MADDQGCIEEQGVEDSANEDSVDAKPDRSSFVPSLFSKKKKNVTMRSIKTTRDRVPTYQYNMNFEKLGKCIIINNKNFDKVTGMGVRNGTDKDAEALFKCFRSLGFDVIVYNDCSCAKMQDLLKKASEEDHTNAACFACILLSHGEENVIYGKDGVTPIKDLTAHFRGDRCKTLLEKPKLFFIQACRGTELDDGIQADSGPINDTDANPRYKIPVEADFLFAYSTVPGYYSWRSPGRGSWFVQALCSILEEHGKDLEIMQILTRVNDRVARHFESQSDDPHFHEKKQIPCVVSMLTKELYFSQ
Nature of the experiment: Inhibition of human recombinant caspase 7 assessed as accumulation of fluorogenic product by fluorometric assay.

The target in another experiment is T3, Caspase-1 (Homo sapiens, UniProt P29466).
T3 sequence (P29466 whole entry): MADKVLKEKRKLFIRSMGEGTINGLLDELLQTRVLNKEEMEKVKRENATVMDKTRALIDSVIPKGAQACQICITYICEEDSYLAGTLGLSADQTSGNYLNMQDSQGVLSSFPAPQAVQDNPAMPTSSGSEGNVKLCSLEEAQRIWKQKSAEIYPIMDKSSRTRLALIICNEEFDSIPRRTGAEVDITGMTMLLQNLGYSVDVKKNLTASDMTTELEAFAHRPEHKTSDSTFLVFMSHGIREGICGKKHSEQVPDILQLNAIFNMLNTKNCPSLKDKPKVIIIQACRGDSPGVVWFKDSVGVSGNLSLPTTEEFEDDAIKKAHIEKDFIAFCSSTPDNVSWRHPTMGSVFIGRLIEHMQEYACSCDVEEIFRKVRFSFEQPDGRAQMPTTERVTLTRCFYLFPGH
Nature of the experiment: Inhibition of human recombinant caspase 1 assessed as accumulation of fluorogenic product by fluorometric assay.

A further experiment addresses T4, Caspase-6 (Homo sapiens, UniProt P55212).
T4 sequence (P55212 whole entry): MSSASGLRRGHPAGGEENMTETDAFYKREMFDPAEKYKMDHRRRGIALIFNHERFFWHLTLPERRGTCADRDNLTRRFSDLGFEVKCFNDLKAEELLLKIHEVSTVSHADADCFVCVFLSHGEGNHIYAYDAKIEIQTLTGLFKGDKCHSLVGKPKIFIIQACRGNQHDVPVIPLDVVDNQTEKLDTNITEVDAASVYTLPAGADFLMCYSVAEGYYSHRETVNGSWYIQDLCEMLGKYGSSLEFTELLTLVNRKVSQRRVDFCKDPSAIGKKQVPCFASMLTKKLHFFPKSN
Nature of the experiment: Inhibition of human recombinant caspase 6 assessed as accumulation of fluorogenic product by fluorometric assay.

The species entered for another experiment is Homo sapiens. Nature of the experiment: Selectivity for human recombinant caspase 3 over human recombinant caspase 6.

Each structure is given as a SMILES string.

Usually IC50 stands for the concentration at which inhibition is half-maximal.

Sequence of Caspase-8 (Q14790 217-374 limits assumed): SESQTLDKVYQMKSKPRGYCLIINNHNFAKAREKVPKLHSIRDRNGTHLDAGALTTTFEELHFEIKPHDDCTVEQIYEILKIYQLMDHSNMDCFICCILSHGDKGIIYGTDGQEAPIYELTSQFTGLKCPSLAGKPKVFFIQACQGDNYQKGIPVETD
Sequence of Caspase-8 (Q14790 385-479 limits assumed): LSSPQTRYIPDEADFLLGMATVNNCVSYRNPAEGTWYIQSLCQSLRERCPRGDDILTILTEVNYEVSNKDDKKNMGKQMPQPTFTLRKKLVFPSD

With `N#CC(C#N)=C1C(=O)N(Cc2ccc(Cl)c(Cl)c2)c2ccc(S(=O)(=O)N3CCCC3)cc21`, the IC50 on Caspase-3 was 724 nM; at Caspase-8, more than 50 µM; at Caspase-7, 471 nM; on Caspase-1, more than 10 µM; at Caspase-6 it was 468 nM.
With `COc1ccc(CN2C(=O)C(=C(C#N)C#N)c3cc(S(=O)(=O)N4CCCC4)ccc32)cc1`, the IC50 at Caspase-3 was 673 nM; at Caspase-8 it was more than 50 µM; at Caspase-7 it was 443 nM; at Caspase-1, 4.7 µM; at Caspase-6, 358 nM.
The like results for `N#CC(C#N)=C1C(=O)N(Cc2ccc(Cl)c(Cl)c2)c2ccc(S(=O)(=O)N3CCC3)cc21` were, in that order, 365 nM, more than 50 µM, 340 nM, more than 10 µM and 280 nM.
The like results for `O=C1Nc2ccc(S(=O)(=O)N3CCOCC3)cc2C1=O` were, in that order, more than 20000 nM, more than 50 µM, more than 20000 nM, more than 25 µM and more than 20000 nM.
With `N#CC(C#N)=C1C(=O)N(Cc2ccc(Cl)c(Cl)c2)c2ccc(S(=O)(=O)N3CCOCC3)cc21`, the IC50 is 1550 nM on Caspase-3; more than 50 µM at Caspase-8; 7900 nM at Caspase-7; 5.35 µM at Caspase-1; 592 nM on Caspase-6.
In the case of `N#CC(C#N)=C1C(=O)N(Cc2ccccc2)c2ccc(S(=O)(=O)N3CCSCC3)cc21`, the IC50 on Caspase-3 was 1450 nM; at Caspase-8, more than 50 µM; on Caspase-7, 1620 nM; on Caspase-1, 4.58 µM; on Caspase-6, 151 nM.
Taken in the same sequence, the figures for `O=C1C(=O)N(Cc2ccc(Cl)c(Cl)c2)c2ccc(S(=O)(=O)N3CCOCC3)cc21` were 1430 nM, more than 50 µM, 2230 nM, more than 25 µM and more than 15000 nM.
For `N#CC(C#N)=C1C(=O)N(Cc2ccccc2)c2ccc(S(=O)(=O)N3CCCCC3)cc21`, the IC50 was 583 nM at Caspase-3, more than 50 µM on Caspase-8, 878 nM at Caspase-7 and 325 nM on Caspase-6.
Consider `O=C1C(=O)N(Cc2ccccc2)c2ccc(S(=O)(=O)N3CCC[C@H]3COc3ccccc3)cc21`, for which the IC50 at Caspase-3 is 14.5 nM; on Caspase-6, more than 5000 nM.
As for `N#CC(C#N)=C1C(=O)N(Cc2ccccc2)c2ccc(S(=O)(=O)N3CCCC3)cc21`, the concentration for half-maximal inhibition (IC50) on Caspase-3 was 671 nM; on Caspase-8, more than 50 µM; at Caspase-7, 587 nM; at Caspase-1 it was 4.7 µM; at Caspase-6, 241 nM.
The like results for `COc1ccc(CN2C(=O)C(=C(C#N)C#N)c3cc(S(=O)(=O)N4CCOCC4)ccc32)cc1` were, in that order, 4630 nM, more than 50 µM, 4100 nM, 6.82 µM and 453 nM.
The like results for `COc1ccc(CN2C(=O)C(=C(C#N)C#N)c3cc(S(=O)(=O)N4CCCCC4)ccc32)cc1` were, in that order, 1400 nM, more than 50 µM, 1150 nM, more than 10 µM and 545 nM.
As to `O=C1C(=O)N(Cc2ccccc2)c2ccc(S(=O)(=O)N3CCSCC3)cc21`, the IC50 is 1030 nM on Caspase-3; more than 50 µM on Caspase-8; 1480 nM on Caspase-7; more than 10 µM on Caspase-1; 12800 nM at Caspase-6. In addition, in the experiment filed under Homo sapiens, the fold change (FC) came out at 10.
Take `N#CC(C#N)=C1C(=O)N(Cc2ccc(Cl)c(Cl)c2)c2ccc(S(=O)(=O)N3CCSCC3)cc21`: the IC50 on Caspase-3 is 1990 nM; on Caspase-8 it was more than 50 µM; at Caspase-7, 5100 nM; on Caspase-1, 5.35 µM; on Caspase-6 it was 230 nM.
Taken in the same sequence, the figures for `COc1ccc(CN2C(=O)C(=C(C#N)C#N)c3cc(S(=O)(=O)N4CCC4)ccc32)cc1` were 718 nM, more than 50 µM, 471 nM, 4.18 µM and 197 nM.
As to `CC(=O)N[C@@H](CC(=O)O)C(=O)N[C@@H](CCC(=O)O)C(=O)N[C@H](C(=O)N[C@H](C=O)CC(=O)O)C(C)C`, on Caspase-7, the IC50 was 2.95 nM.
`N#CC(C#N)=C1C(=O)N(Cc2ccc(Cl)c(Cl)c2)c2ccc(S(=O)(=O)N3CCCCC3)cc21`: the half-inhibitory concentration (IC50) on Caspase-3 was 529 nM; at Caspase-8, more than 50 µM; on Caspase-7 it was 3420 nM; on Caspase-1, more than 10 µM; on Caspase-6, 568 nM.
Taken in the same sequence, the figures for `O=C1C(=O)N(Cc2ccccc2)c2ccc(S(=O)(=O)N3CCC3)cc21` were 114 nM, more than 50 µM, 132 nM, more than 10 µM and 9830 nM.
The like results for `COc1ccc(CN2C(=O)C(=C(C#N)C#N)c3cc(S(=O)(=O)N4CCSCC4)ccc32)cc1` were, in that order, 1670 nM, more than 50 µM, 1890 nM, 4.3 µM and 188 nM.
Turning to `N#CC(C#N)=C1C(=O)N(Cc2ccccc2)c2ccc(S(=O)(=O)N3CCC3)cc21`, the IC50 at Caspase-3 is 323 nM; on Caspase-8 it was more than 50 µM; on Caspase-7, 248 nM; at Caspase-1 it was 3.3 µM; at Caspase-6 it was 156 nM.
In the case of `N#CC(C#N)=C1C(=O)N(Cc2ccccc2)c2ccc(S(=O)(=O)N3CCOCC3)cc21`, the IC50 at Caspase-3 was 4700 nM; at Caspase-8, more than 50 µM; on Caspase-7, 4470 nM; on Caspase-6 it was 425 nM.
